The text below walks through data of publication PMC7059793, “Novel Chemical Scaffolds to Inhibit the Neutral Amino Acid Transporter B^0AT1 (SLC6A19), a Potential Target to Treat Metabolic Diseases” (Frontiers in Pharmacology, 2020).

In assay [1] the target is T1, B^0AT1 (Mus musculus, UniProt Q9D687).
T1 construct: from tissue; host or cells: small intestine of C57/BL6J female mice, inverted 1 cm sections
The assay is described as follows: Na+-dependent leucine uptake in inverted sections of mouse intestine. As to conditions: 50 μM inhibitor, 150 μM [14C]leucine. From the text: For uptake assays with inverted sections of mouse small intestine, 5–7 months old C57/BL6J female mice were sacrificed by cervical dislocation (Animal ethics protocol A2016/41, Australian National University). The small intestine was removed and the intestinal lumen was rinsed with ice-cold 0.9% NaCl. Subsequently, the small intestine was inverted on a metal rod to expose the mucosa. The inverted intestine was then cut into 1 cm pieces and fitted onto enzyme spatulas, which were immersed in HBSS pH 7.5 supplemented with 1 mM glutamine and protease inhibitor (Roche Complete). After washing twice in modified HBSS pH 7.5 (containing 10% NaCl + 90% NMDG-Cl for Na^+-dependent uptake and 100% NMDG-Cl for Na^+-independent uptake, both buffers supplemented with 1 mM glutamine) to remove residual compounds, the segments were pre-incubated in the same buffer in the presence of 50 µM of transport inhibitor and protease inhibitors for 15 min. At the end of the pre-incubation, the segments were transferred for 30 s into uptake buffer at 37°C (HBSS pH 7.5 supplemented with 150 μM [^14C]leucine and 50 µM transport inhibitor). For Na^+-dependent uptake regular HBSS was used, for Na^+-independent uptake NaCl was replaced by NMDG-Cl. Subsequently, the segments were rinsed three times in ice-cold HBSS pH 7.5 and lysed in 400 µl of 10% SDS. After 2–3 h, the lysed tissues were analyzed by scintillation counting.
To test whether the novel B^0AT1 inhibitors block the transporter in a more physiological environment, we studied leucine uptake in inverted sections of mouse intestine ( Figure 6C ). We established previously that Na^+-dependent leucine uptake (blue bars) in this system is mediated by B^0AT1 ([Broer et al., 2011]). In addition leucine uptake has a Na^+-independent transport component (salmon coloured bars), which is most likely mediated by rbat/b^0,+AT. Because of variability between animals, all data were normalized to uninhibited controls from the same animal.

The target of assay [2] is T2, B^0AT1 (Homo sapiens, UniProt Q695T7).
T2 construct: expressed in transfected cells
T2 sequence (Q695T7 1-634): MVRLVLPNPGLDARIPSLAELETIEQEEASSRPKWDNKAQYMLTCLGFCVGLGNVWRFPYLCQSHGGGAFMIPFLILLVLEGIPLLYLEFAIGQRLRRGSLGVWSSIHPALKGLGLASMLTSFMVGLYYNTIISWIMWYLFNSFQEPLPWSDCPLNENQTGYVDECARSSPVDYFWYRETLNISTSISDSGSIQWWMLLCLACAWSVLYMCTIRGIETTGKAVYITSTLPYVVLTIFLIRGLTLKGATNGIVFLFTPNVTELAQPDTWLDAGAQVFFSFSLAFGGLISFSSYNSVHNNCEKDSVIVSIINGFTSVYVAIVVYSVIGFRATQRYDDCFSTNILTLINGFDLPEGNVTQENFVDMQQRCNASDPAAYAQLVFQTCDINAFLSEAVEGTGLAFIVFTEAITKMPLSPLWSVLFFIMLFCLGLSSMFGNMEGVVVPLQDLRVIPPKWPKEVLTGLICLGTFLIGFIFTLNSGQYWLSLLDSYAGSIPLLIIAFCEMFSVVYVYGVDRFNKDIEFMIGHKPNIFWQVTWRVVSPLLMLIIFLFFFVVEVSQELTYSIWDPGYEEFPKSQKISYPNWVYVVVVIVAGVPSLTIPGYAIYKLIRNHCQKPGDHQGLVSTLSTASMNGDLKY
T2 sequence (Q9HBJ8 15-222 partner): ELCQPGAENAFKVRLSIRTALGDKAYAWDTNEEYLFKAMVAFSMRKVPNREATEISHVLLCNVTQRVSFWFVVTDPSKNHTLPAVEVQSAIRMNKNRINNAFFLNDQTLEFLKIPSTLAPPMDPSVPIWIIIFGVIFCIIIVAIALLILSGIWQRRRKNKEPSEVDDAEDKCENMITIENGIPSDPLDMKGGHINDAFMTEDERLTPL
The assay is described as follows: Mode of inhibition: leucine uptake kinetics at three inhibitor concentrations, FLIPR, Eadie-Hofstee. Type of assay: cell-based. The conditions noted are these: CHO-BC cells. From the text:
To understand the mode of inhibition, we determined KM-values at three different inhibitor concentrations using FLIPR assay and plotted Eadie-Hofstee transformed data ( Figure 5 ). Fully parallel lines indicate a change of […], while fully converging lines (at x = 0; y = Vmax) indicate a change of KM only with increasing concentrations of the inhibitor. […] To rationalize the mode of inhibition, we performed docking studies using a homology model of B^0AT1 based on the outside-open conformation of LeuT. […] In the homology structure the two Na^+ are shown as yellow spheres. Both, LeuT Na^+-site 1 and -site 2 are conserved in B^0AT1, but only one site is used functionally. This is most likely site 1 as it binds the α-carboxyl-group of the amino acids ([O’mara et al., 2006]). […] Many transport inhibitors are substrate analogues that are too large to fit into the occluded substrate binding cavity, thereby blocking the conformational change required for transport ([Broer, 2018]). […] Instead the compounds preferred binding to different sites in the vestibule, including the proposed Substrate-binding site 2 ([Shi et al., 2008]), which was the preferred docking site for compound E4. In the outside open conformation, the volume of the binding site increases, encompassing an orthostatic binding site ( Figure 5H , orange), occupied by E4, E18, or the substrate and an allosteric binding site ( Figure 5H , blue), which is compatible with substrate binding.
Figure 5 Mechanistic aspects of B^0AT1 inhibitors. Inhibition of B^0AT1 by compounds E4 (A), E18 (B) and CB3 (C) (n = 3, e = 3) was determined by FLIPR assay in CHO-BC cells. To determine the mode of inhibition, the kinetic properties of leucine uptake were determined in the presence of three different inhibitor concentrations. Docking poses of compounds E4 (D), E18 (E) and CB3 (F) are shown for comparison. Amino acid side-chains of the binding pocket are shown in green, cosubstrate Na^+ 1 is shown in yellow (foreground), Na^+ 2 is only partially visible in the background and may not exist in B^0AT1. […]

T1 sequence (Q9D687 whole entry): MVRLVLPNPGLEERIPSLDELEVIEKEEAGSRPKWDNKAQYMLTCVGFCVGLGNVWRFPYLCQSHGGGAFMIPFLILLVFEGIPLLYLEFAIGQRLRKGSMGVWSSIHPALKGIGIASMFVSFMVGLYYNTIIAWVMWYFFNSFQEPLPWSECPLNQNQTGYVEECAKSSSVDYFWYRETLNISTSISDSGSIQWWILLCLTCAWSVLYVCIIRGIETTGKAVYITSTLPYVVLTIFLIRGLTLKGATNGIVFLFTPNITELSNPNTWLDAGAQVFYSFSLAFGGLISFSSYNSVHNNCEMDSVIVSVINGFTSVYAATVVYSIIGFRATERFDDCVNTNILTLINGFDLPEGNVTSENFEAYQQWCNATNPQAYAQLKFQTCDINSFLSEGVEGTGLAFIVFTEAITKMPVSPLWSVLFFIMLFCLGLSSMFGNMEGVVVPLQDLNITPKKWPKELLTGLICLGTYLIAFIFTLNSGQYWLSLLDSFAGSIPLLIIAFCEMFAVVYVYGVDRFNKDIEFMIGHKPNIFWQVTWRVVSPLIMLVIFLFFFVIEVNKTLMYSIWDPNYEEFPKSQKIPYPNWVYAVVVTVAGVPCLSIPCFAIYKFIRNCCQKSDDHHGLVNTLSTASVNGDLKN
T1 sequence (Q8R0I0 18-805 partner): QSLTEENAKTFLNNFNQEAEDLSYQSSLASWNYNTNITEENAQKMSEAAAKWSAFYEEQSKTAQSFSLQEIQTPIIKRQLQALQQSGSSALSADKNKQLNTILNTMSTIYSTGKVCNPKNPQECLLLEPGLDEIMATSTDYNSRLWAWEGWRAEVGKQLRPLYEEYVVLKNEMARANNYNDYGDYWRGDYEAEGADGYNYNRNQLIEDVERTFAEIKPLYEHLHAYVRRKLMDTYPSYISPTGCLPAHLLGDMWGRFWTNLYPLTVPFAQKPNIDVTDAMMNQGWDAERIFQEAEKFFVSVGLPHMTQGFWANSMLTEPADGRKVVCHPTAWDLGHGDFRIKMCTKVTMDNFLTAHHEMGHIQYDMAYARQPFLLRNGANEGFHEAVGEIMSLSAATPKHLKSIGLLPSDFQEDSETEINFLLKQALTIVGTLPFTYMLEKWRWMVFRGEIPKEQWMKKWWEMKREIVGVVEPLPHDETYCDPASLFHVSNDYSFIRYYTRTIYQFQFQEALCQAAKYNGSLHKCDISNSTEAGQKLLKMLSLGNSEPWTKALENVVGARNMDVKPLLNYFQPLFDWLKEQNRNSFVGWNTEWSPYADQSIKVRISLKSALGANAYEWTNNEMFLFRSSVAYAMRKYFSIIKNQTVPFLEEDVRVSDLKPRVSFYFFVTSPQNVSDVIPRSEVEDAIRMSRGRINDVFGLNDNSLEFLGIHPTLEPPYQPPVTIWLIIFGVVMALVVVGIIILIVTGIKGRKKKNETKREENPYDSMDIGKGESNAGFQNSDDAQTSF

Consider `Cc1cc(C(=O)Nc2ccc(Cl)cc2C(F)(F)F)no1` [CB3], for which the “Inhibition of Na+-dependent leucine uptake (B^0AT1) ex vivo” value (“Inhibition … (B^0AT1) ex vivo” below) on B^0AT1 [1] is reported as “more potent”. The Mode of inhibition entry on B^0AT1 [2] is given as “more mixed model”.

For `Cc1cc(OCC(=O)NC(C)C)cc(C)c1Cl` [Compound E4], at B^0AT1 [1], the “Inhibition … (B^0AT1) ex vivo” value is listed as “limited capacity to inhibit B^0AT1”. For the same molecule, the Mode of inhibition entry on B^0AT1 [2] is “largely competitive mode of inhibition”.

On to `COc1ccccc1Nc1nc2ccccc2s1` [Compound E18], for which, on B^0AT1 [1], the “Inhibition … (B^0AT1) ex vivo” value was “more potent”. Further, the Mode of inhibition entry at B^0AT1 [2] is given as “largely competitive mode of inhibition”.
